Reference: ChEMBL document CHEMBL4219247, “Inhibitors of dihydrofolate reductase as antitumor agents: design, synthesis and biological evaluation of a series of novel nonclassical 6-substituted pyrido[3,2-d]pyrimidines with a three- to five-carbon bridge” (Bioorg Med Chem, 2018)

Experiments:
Dihydrofolate reductase = biological target: T1, Dihydrofolate reductase (Homo sapiens, UniProt P00374); assay: Inhibition of recombinant human DHFR using dihydrofolate as substrate after 15 mins in presence of NADPH
T1 sequence (P00374 whole entry): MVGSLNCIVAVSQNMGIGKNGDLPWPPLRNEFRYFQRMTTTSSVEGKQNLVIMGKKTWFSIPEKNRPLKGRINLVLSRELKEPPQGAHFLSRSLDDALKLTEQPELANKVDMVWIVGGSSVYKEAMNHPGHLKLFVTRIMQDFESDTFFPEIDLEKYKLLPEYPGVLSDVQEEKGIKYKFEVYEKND

HL-60 [1] = assay: Antiproliferative activity against human HL60 cells after 48 hrs by MTS assay; type: functional, cell-based; settings: HL-60, 48 h
HCT-116 = assay: Antiproliferative activity against human HCT116 cells after 48 hrs by MTS assay; type: functional, cell-based; settings: HCT-116, 48 h
HeLa = assay: Antiproliferative activity against human HeLa cells after 48 hrs by MTS assay
HL-60 [2] = assay: Induction of apoptosis in human HL60 cells assessed as early apoptotic cells at 0.2 uM after 24 hrs by Annexin V-FITC/propidium iodide staining based flow cytometry (reference value: 2.09%); type: functional
HL-60 [3] = assay: Induction of apoptosis in human HL60 cells assessed as necrotic cells at 0.1 uM after 24 hrs by Annexin V-FITC/propidium iodide staining based flow cytometry (reference value: 2.36%); type: functional
HL-60 [4] = assay: Upregulation of DHFR protein level in human HL60 cells after 48 hrs by Western blot method; type: functional, cell-based
HL-60 [5] = assay: Upregulation of DHFR protein level in human HL60 cells at 0.125 uM after 48 hrs by Western blot method relative to control; type: functional
HL-60 [6] = assay: Upregulation of DHFR protein level in human HL60 cells at 0.25 uM after 48 hrs by Western blot method relative to control; type: functional
HL-60 [7] = assay: Cell cycle arrest in human HL60 cells assessed as accumulation at G2 phase at 4 uM after 24 hrs by propidium iodide staining based flow cytometry (reference value: 13.56%); type: functional
HL-60 [8] = assay: Cell cycle arrest in human HL60 cells assessed as accumulation at G1 phase at 4 uM after 24 hrs by propidium iodide staining based flow cytometry (reference value: 28.69%); type: functional
HL-60 [9] = assay: Induction of apoptosis in human HL60 cells assessed as live cells at 0.2 uM after 24 hrs by Annexin V-FITC/propidium iodide staining based flow cytometry (reference value: 90.7%); type: functional
HL-60 [10] = assay: Cell cycle arrest in human HL60 cells assessed as accumulation at G2 phase at 1 uM after 24 hrs by propidium iodide staining based flow cytometry (reference value: 13.56%); type: functional
HL-60 [11] = assay: Upregulation of DHFR protein level in human HL60 cells at 0.5 uM after 48 hrs by Western blot method relative to control; type: functional
HL-60 [12] = assay: Induction of apoptosis in human HL60 cells assessed as late apoptotic cells at 0.2 uM after 24 hrs by Annexin V-FITC/propidium iodide staining based flow cytometry (reference value: 4.84%); type: functional
HL-60 [13] = assay: Induction of apoptosis in human HL60 cells assessed as live cells at 0.1 uM after 24 hrs by Annexin V-FITC/propidium iodide staining based flow cytometry (reference value: 90.7%); type: functional
HL-60 [14] = assay: Cell cycle arrest in human HL60 cells assessed as accumulation at S phase at 4 uM after 24 hrs by propidium iodide staining based flow cytometry (reference value: 57.76%); type: functional
HL-60 [15] = assay: Cell cycle arrest in human HL60 cells assessed as accumulation at S phase at 1 uM after 24 hrs by propidium iodide staining based flow cytometry (reference value: 57.76%); type: functional
HL-60 [16] = assay: Induction of apoptosis in human HL60 cells assessed as early apoptotic cells at 0.1 uM after 24 hrs by Annexin V-FITC/propidium iodide staining based flow cytometry (reference value: 2.09%); type: functional
HL-60 [17] = assay: Induction of apoptosis in human HL60 cells assessed as late apoptotic cells at 0.1 uM after 24 hrs by Annexin V-FITC/propidium iodide staining based flow cytometry (reference value: 4.84%); type: functional
HL-60 [18] = assay: Cell cycle arrest in human HL60 cells assessed as accumulation at G1 phase at 1 uM after 24 hrs by propidium iodide staining based flow cytometry (reference value: 28.69%); type: functional
HL-60 [19] = assay: Induction of apoptosis in human HL60 cells assessed as necrotic cells at 0.2 uM after 24 hrs by Annexin V-FITC/propidium iodide staining based flow cytometry (reference value: 2.36%); type: functional

Compound | IC50 (Dihydrofolate reductase) | IC50 (HL-60 [1]) | IC50 (HCT-116) | IC50 (HeLa) | further results
Nc1nc(N)c2nc(/C=C/C(=O)c3ccccc3)ccc2n1 | > 100000 nM | 1500 nM | 10.2 µM | 3.28 µM | –
Nc1nc(N)c2nc(/C=C/CCCc3ccccc3)ccc2n1 | 2100 nM | 1310 nM | 15.3 µM | 17.6 µM | –
Nc1nc(N)c2nc(/C=C/Cc3ccccc3)ccc2n1 | 590 nM | 350 nM | 13.3 µM | 25.3 µM | –
CN(Cc1cnc2nc(N)nc(N)c2n1)c1ccc(C(=O)N[C@@H](CCC(=O)O)C(=O)O)cc1 [METHOTREXATE] | – | 25 nM | 0.13 µM | – | –
Nc1nc(N)c2nc(/C=C/C=C/c3ccccc3)ccc2n1 | 12300 nM | 6790 nM | 17.7 µM | 14.9 µM | –
Nc1nc(N)c2nc(/C=C/C(=O)/C=C/c3ccccc3)ccc2n1 | 70500 nM | 1080 nM | 12 µM | 3.7 µM | –

The next lines start with results.

IC50 (Dihydrofolate reductase) | IC50 (HL-60 [1]) | IC50 (HCT-116) | IC50 (HeLa) | Compound | further results
2730 nM | 1520 nM | 17.3 µM | 74.8 µM | Nc1nc(N)c2nc(CCC(O)c3ccccc3)ccc2n1 (stereo not drawn) | –
610 nM | 590 nM | 11 µM | 47.1 µM | Nc1nc(N)c2nc(CCCCc3ccccc3)ccc2n1 | –
700 nM | 780 nM | 11.7 µM | 40.8 µM | Nc1nc(N)c2nc(CCCCCc3ccccc3)ccc2n1 | –
7930 nM | 3740 nM | 32.8 µM | 77.5 µM | Nc1nc(N)c2nc(CCC(=O)CCc3ccccc3)ccc2n1 | –
2530 nM | 1230 nM | 20.6 µM | 65.1 µM | Nc1nc(N)c2nc(CCC(O)CCc3ccccc3)ccc2n1 (stereo not drawn) | –
11200 nM | 8120 nM | 20.9 µM | 85.6 µM | Nc1nc(N)c2nc(CCC(=O)c3ccccc3)ccc2n1 | –
60 nM | 200 nM | 9.56 µM | 49.1 µM | Nc1nc(N)c2nc(CCCc3ccccc3)ccc2n1 | Activity (HL-60 [2]): 6.63%; Activity (HL-60 [3]): 2.21%; Activity (HL-60 [4]): Dose-dependent effect; fold change (FC) (HL-60 [5]): 1.03; fold change (FC) (HL-60 [6]): 1.62; Activity (HL-60 [7]): 0%; Activity (HL-60 [8]): 19.34%; Activity (HL-60 [9]): 76.35%; Activity (HL-60 [10]): 13.35%; fold change (FC) (HL-60 [11]): 1.98; Activity (HL-60 [12]): 11.06%; Activity (HL-60 [13]): 87.64%; Activity (HL-60 [14]): 80.66%; Activity (HL-60 [15]): 62.39%; Activity (HL-60 [16]): 3.45%; Activity (HL-60 [17]): 6.69%; Activity (HL-60 [18]): 24.26%; Activity (HL-60 [19]): 5.96%
